Laboratory results reported in patent US20230407243A1, “GENETIC PLATFORM TO INVESTIGATE THE FUNCTIONS OF BACTERIAL DRUG EFFLUX PUMPS” (priority 2022, published 2023).
In brackets after ≈: the same amount, converted by molar mass. Entries after “also recorded” stand apart in the source; their conditions may differ. Where two headings read alike, the source gives them in different places.

Assays:
Assay type in all cases: cell-based, Escherichia coli
EKO-35 yjfC (pCA24N) = experiment: MIC of strains harboring ASKA plasmids; conditions: 0.1 mM IPTG; for MIC, EKO-35 yjfC (pCA24N), Chlor +: 4 μg/mL chloramphenicol selection; for MIC, EKO-35 yjfC (pCA24N), Chlor −: no plasmid selection; for MIC: EKO-35 yjfC
EKO-35 rspA (pCA24N) = experiment: MIC of strains harboring ASKA plasmids; conditions: 0.1 mM IPTG; for MIC, EKO-35 rspA (pCA24N), Chlor +: 4 μg/mL chloramphenicol selection; for MIC, EKO-35 rspA (pCA24N), Chlor −: no plasmid selection; for MIC: EKO-35 rspA
EKO-35 gyrB (pCA24N) = experiment: MIC of strains harboring ASKA plasmids; conditions: 0.1 mM IPTG; for MIC, EKO-35 gyrB (pCA24N), Chlor +: 4 μg/mL chloramphenicol selection; for MIC, EKO-35 gyrB (pCA24N), Chlor −: no plasmid selection; for MIC: EKO-35 gyrB
EKO-35 pitA (pCA24N) = experiment: MIC of strains harboring ASKA plasmids; conditions: 0.1 mM IPTG; for MIC, EKO-35 pitA (pCA24N), Chlor −: no plasmid selection
EKO-35 tufA (pCA24N) = experiment: MIC of strains harboring ASKA plasmids; conditions: 0.1 mM IPTG; for MIC, EKO-35 tufA (pCA24N), Chlor +: 4 μg/mL chloramphenicol selection; for MIC, EKO-35 tufA (pCA24N), Chlor −: no plasmid selection; for MIC: EKO-35 tufA
[1] = tested on: EKO-35 porinated strain expressing acrD; experiment: Checkerboard synergy (FICI), porinated strain
How it was run: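 Inocula prepared from resuspended colonies were exposed to PAβN or NMP combined with antibiotics in MHB II checkerboards. Growth was scored by OD600 to define MICs. FICI then classified the interaction, with values under 0.5 counted as synergistic.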

[2] = tested on: EKO-35 strains with integrated RND tripartite efflux pumps (AcrB, AcrEF, AcrD, and MdtEF) with pGDP2:emrE or empty pGDP-2; experiment: Efflux pump interplay MIC profiling (pGDP2:emrE); conditions: for MIC / Fold Change from EKO-35: Pore −
[3] = tested on: EKO-35-Pore strains with integrated AcrB, AcrEF, AcrD, MdtEF with pGDP2:emrE or empty pGDP-2; experiment: Efflux pump interplay MIC profiling (pGDP2:emrE), porinated; conditions: for MIC / Fold Change from EKO-35: Pore +
Excerpt: This plasmid enables single-copy genomic integration of a selected gene through integration into the nonessential araC gene within the arabinose operon (Cox, G. et al., 2022). All E. coli genes were amplified from E. coli BW25113 genomic DNA, and mexCD was amplified from P. aeruginosa PAO1, using a high-fidelity polymerase, followed by ligation into pINT2. Successful clones were verified using PCR (Primers: pLac-Fwd/pINT-Rev, Table 4) and confirmed via Sanger sequencing at The Centre for Applied Genomics (TCAG) (The Hospital for Sick Children) and the AAC (University of Guelph). For the interplay studies, this process was repeated using the pGDP2 plasmid (Cox, G. et al., 2022).
To enable comparison between efflux production in different genetic backgrounds, each efflux pump-encoding gene was also integrated into the genome of the wild-type BW25113 strain, the single gene deletion mutant from the Keio Collection, and EKO-35. Strains of interest were propagated on LB agar at 37° C. Cell inoculum was prepared using the colony resuspension method and applied to a 96-well well plate (VWR) in technical duplicate, and the minimum inhibitory concentrations were determined according to Clinical & Laboratory Standards Institute (CLSI) protocols in MHB II (Patel J. B. et al, 2015). The plates were incubated for 18 h (Multitron Shaker, Infors HT) at 37° C. with aeration at 900 rpm. The plates were equilibrated to room temperature before the OD600 nm was measured using a BioTek Synergy H1 microplate reader. For interplay profiling, blank subtracted OD600 nm values >0.1 were considered to represent growth.
To investigate, the EKO-35-Pore strains were profiled using the same approach.

[4] = EKO-35 acrD Pore, PAβN + antibiotic

N#Cc1ccc(-c2c(NC(=O)C(Cl)Cl)oc(-c3cccs3)c2C#N)cc1 [compound 2]
MIC, EKO-35 yjfC (pCA24N), Chlor + (EKO-35 yjfC (pCA24N)): >5 μg/mL
MIC, EKO-35 yjfC (pCA24N), Chlor − (EKO-35 yjfC (pCA24N)): >5 μg/mL
MIC, EKO-35 rspA (pCA24N), Chlor + (EKO-35 rspA (pCA24N)): >5 μg/mL
MIC, EKO-35 rspA (pCA24N), Chlor − (EKO-35 rspA (pCA24N)): >5 μg/mL
MIC, EKO-35 gyrB (pCA24N), Chlor + (EKO-35 gyrB (pCA24N)): >5 μg/mL
MIC, EKO-35 gyrB (pCA24N), Chlor − (EKO-35 gyrB (pCA24N)): >5 μg/mL
MIC, EKO-35 pitA (pCA24N), Chlor − (EKO-35 pitA (pCA24N)): >5 μg/mL
MIC, EKO-35 tufA (pCA24N), Chlor + (EKO-35 tufA (pCA24N)): >5 μg/mL
MIC, EKO-35 tufA (pCA24N), Chlor − (EKO-35 tufA (pCA24N)): >5 μg/mL

Cn1cc(Br)c(-c2cccc(NC(=O)Nc3ccc(OC(F)(F)F)cc3)c2)n1 [compound 14]
MIC, EKO-35 yjfC (pCA24N), Chlor + (EKO-35 yjfC (pCA24N)): >5 μg/mL
MIC, EKO-35 yjfC (pCA24N), Chlor − (EKO-35 yjfC (pCA24N)): >5 μg/mL
MIC, EKO-35 rspA (pCA24N), Chlor + (EKO-35 rspA (pCA24N)): >5 μg/mL
MIC, EKO-35 rspA (pCA24N), Chlor − (EKO-35 rspA (pCA24N)): >5 μg/mL
MIC, EKO-35 gyrB (pCA24N), Chlor + (EKO-35 gyrB (pCA24N)): >5 μg/mL
MIC, EKO-35 gyrB (pCA24N), Chlor − (EKO-35 gyrB (pCA24N)): >5 μg/mL
MIC, EKO-35 pitA (pCA24N), Chlor − (EKO-35 pitA (pCA24N)): >5 μg/mL
MIC, EKO-35 tufA (pCA24N), Chlor + (EKO-35 tufA (pCA24N)): >5 μg/mL
MIC, EKO-35 tufA (pCA24N), Chlor − (EKO-35 tufA (pCA24N)): >5 μg/mL

O=C(Nc1ccccc1C(=O)Nc1nnc(C(F)(F)F)s1)c1ccccc1Cl [compound 19]
MIC, EKO-35 yjfC (pCA24N), Chlor + (EKO-35 yjfC (pCA24N)): >5 μg/mL
MIC, EKO-35 yjfC (pCA24N), Chlor − (EKO-35 yjfC (pCA24N)): >5 μg/mL
MIC, EKO-35 rspA (pCA24N), Chlor + (EKO-35 rspA (pCA24N)): >5 μg/mL
MIC, EKO-35 rspA (pCA24N), Chlor − (EKO-35 rspA (pCA24N)): >5 μg/mL
MIC, EKO-35 gyrB (pCA24N), Chlor + (EKO-35 gyrB (pCA24N)): >5 μg/mL
MIC, EKO-35 gyrB (pCA24N), Chlor − (EKO-35 gyrB (pCA24N)): >5 μg/mL
MIC, EKO-35 pitA (pCA24N), Chlor − (EKO-35 pitA (pCA24N)): >5 μg/mL
MIC, EKO-35 tufA (pCA24N), Chlor + (EKO-35 tufA (pCA24N)): >5 μg/mL
MIC, EKO-35 tufA (pCA24N), Chlor − (EKO-35 tufA (pCA24N)): >5 μg/mL

CO[C@@H]1[C@@H](OC(N)=O)[C@@H](O)[C@H](Oc2ccc3c(O)c(NC(=O)c4ccc(O)c(CC=C(C)C)c4)c(=O)oc3c2C)OC1(C)C [novobiocin]
Effect [1, 4]: Additive
FICI [1, 4]: 0.563
MICb Alone ([1]; EKO-35 acrD Pore, antibiotic alone (PAβN checkerboard)): 16 µg/mL
MICb Combined ([1]; EKO-35 acrD Pore, antibiotic in combination with PAβN): 1 µg/mL
interaction of PAβN in combination with the labelled antibiotic (FICI) ([1]; acrD expressed in the porinated strain): synergy was lost
effect of gyrB overexpression on resistance of EKO-35 (EKO-35 gyrB (pCA24N); ASKA plasmid): increased novobiocin resistance
MIC (EKO-35 gyrB (pCA24N); Escherichia coli, Chlor + (4 μg/mL), read-out: MIC): 25 µg/mL
interplay of EmrE with tripartite efflux pumps on resistance ([2]; EKO-35, AcrB, AcrEF, AcrD, MdtEF combined with pEmrE): Interplay was not observed; also recorded: did not observe synergy
extrusion by EmrE ([2]; negative controls): not extruded by EmrE
MIC ([2]; strain EKO-35): 0.781 µg/mL (≈ 1.27 µM)
Fold Change from EKO-35 ([2]; strain EKO-35 pEmrE): 1
MIC ([2]; strain EKO-35 pEmrE): 0.781 µg/mL (≈ 1.27 µM)
Fold Change from EKO-35 ([2]; strain acrB pEmrE): 512
MIC ([2]; strain acrB pEmrE): 400 µg/mL (≈ 653 µM)
Fold Change from EKO-35 ([2]; strain acrB): 512
MIC ([2]; strain acrB): 400 µg/mL (≈ 653 µM)
Fold Change from EKO-35 ([2]; strain acrD pEmrE): 64
MIC ([2]; strain acrD pEmrE): 50 µg/mL (≈ 81.6 µM)
Fold Change from EKO-35 ([2]; strain acrD): 128
MIC ([2]; strain acrD): 100 µg/mL (≈ 163 µM)
Fold Change from EKO-35 ([2]; strain acrEF pEmrE): 64
MIC ([2]; strain acrEF pEmrE): 50 µg/mL (≈ 81.6 µM)
Fold Change from EKO-35 ([2]; strain acrEF): 128
MIC ([2]; strain acrEF): 100 µg/mL (≈ 163 µM)
Fold Change from EKO-35 ([2]; strain mdtEF pEmrE): 8
MIC ([2]; strain mdtEF pEmrE): 6.25 µg/mL (≈ 10.2 µM)
Fold Change from EKO-35 ([2]; strain mdtEF): 16
MIC ([2]; strain mdtEF): 12.5 µg/mL (≈ 20.4 µM)
interplay of EmrE with tripartite efflux pumps on resistance ([3]; EKO-35-Pore, AcrB, AcrEF, AcrD, MdtEF combined with pEmrE): Interplay was not observed
MIC ([3]; strain EKO-35): 0.391 µg/mL
Fold Change from EKO-35 ([3]; strain EKO-35 pEmrE): 1
MIC ([3]; strain EKO-35 pEmrE): 0.391 µg/mL
Fold Change from EKO-35 ([3]; strain acrB pEmrE): 256
MIC ([3]; strain acrB pEmrE): 100 µg/mL
Fold Change from EKO-35 ([3]; strain acrB): 256
MIC ([3]; strain acrB): 100 µg/mL
Fold Change from EKO-35 ([3]; strain acrD pEmrE): 16
Fold Change from EKO-35 ([3]; strain acrD): 64
MIC ([3]; strain acrD): 25 µg/mL
Fold Change from EKO-35 ([3]; strain acrEF pEmrE): 32
Fold Change from EKO-35 ([3]; strain acrEF): 32
Fold Change from EKO-35 ([3]; strain mdtEF pEmrE): 4
MIC ([3]; strain mdtEF pEmrE): 1.56 µg/mL
Fold Change from EKO-35 ([3]; strain mdtEF): 8
MIC ([3]; strain mdtEF): 3.13 µg/mL

COc1cc(Cc2cnc(N)nc2N)cc(OC)c1OC [trimethoprim]
MIC (EKO-35 yjfC (pCA24N); Chlor + (4 μg/mL)): 0.391 µg/mL

benzalkonium chloride
MIC (EKO-35 yjfC (pCA24N); Chlor + (4 μg/mL)): 0.781 µg/mL
MIC (EKO-35 yjfC (pCA24N); Chlor −): 0.781 µg/mL
MIC (EKO-35 rspA (pCA24N); Chlor + (4 μg/mL)): 0.781 µg/mL
MIC (EKO-35 rspA (pCA24N); Chlor −): 0.781 µg/mL
MIC (EKO-35 gyrB (pCA24N); Chlor + (4 μg/mL)): 0.781 µg/mL
MIC (EKO-35 gyrB (pCA24N); Chlor −): 0.781 µg/mL
MIC (EKO-35 pitA (pCA24N); EKO-35 pitA, Chlor −): 0.781 µg/mL
MIC (EKO-35 tufA (pCA24N); Chlor + (4 μg/mL)): 0.781 µg/mL
MIC (EKO-35 tufA (pCA24N); Chlor −): 0.781 µg/mL
